Where two headings read alike, the source gives them in different places.
Tests used:
Format in all cases: cell-based
[1] = tested on: Corynebacterium xerosis; assay: MIC in the agar incorporation test
Protocol: (§1) Determination of Minimum Inhibitory Concentration (MIC Values) in the Agar Incorporation Test
(§2) 1% stock solutions of the substances are prepared in an appropriate solvent and diluted in serial dilutions 1:2 (to yield end concentrations in the agar of 500-1.9 ppm). 0.3 ml of each dilution step is mixed with 15 ml of nutrient medium while the latter is still liquid. After the nutrient medium has solidified, 10 μl of each test strain in 0.85% NaCl solution are spotted onto the agar medium.
(§3) The plates are incubated at 37° C. for 24 hours and then the highest dilution (lowest concentration) of the test substance at which growth is no longer observable is determined.
(§4) Test Organisms: Staphylococcus aureus ATCC 6583 Staphylococcus epidermidis ATCC 12228 Corynebacterium xerosis ATCC 373 Propionibacterium acnes ATCC Escherichia coli ATCC 10536 Salmonella choleraesuis ATCC Klebsiella pneumoniae ATCC *Candida albicans ATCC 10231
(§5) *Aspergillus niger ATCC 6275

[2] = tested on: Klebsiella pneumoniae; assay: MIC in the agar incorporation test; conditions: Mueller Hinton agar, 24 hours at 37° C.
Protocol: as §1, §2, §3, §4, §5

[3] = tested on: Propionibacterium acnes; assay: MIC in the agar incorporation test; conditions: Cutibacterium acnes, read-out: MIC Propionibacterium acnes
Protocol: as §1, §2, §3, §4, §5

[4] = tested on: Salmonella choleraesuis; assay: MIC in the agar incorporation test; conditions: Salmonella enterica, Mueller Hinton agar, 24 hours at 37° C.
Protocol: as §1, §2, §3, §4, §5

[5] = tested on: Staphylococcus aureus; assay: MIC in the agar incorporation test
Protocol: as §1, §2, §3, §4, §5

[6] = tested on: Staphylococcus epidermis; assay: MIC in the agar incorporation test
Protocol: as §1, §2, §3, §4, §5

[7] = tested on: Corynebacterium minutissimum; assay: MIC in the agar incorporation test; conditions: read-out: MIC Corynebacterium minutissimum
[8] = tested on: Actinomyces viscosus; assay: MIC against oral microorganisms via broth dilution
Protocol: (§6) Determination of the Minimum Inhibition Concentration (MIC Value) Against Different Oral Microorganisms Via Broth Dilution
(§7) 1500 ppm stock solutions of the substances are prepared in ethanol and pipetted into the growth medium to yield concentrations between 0.94 and 15 ppm. Bacteria are taken from blood agar plates with cotton swabs and adjusted in the appropriate growth medium to yield an optical density corresponding to McFarland 0.5. This suspension is directly used in the case of F. nucleatum and P. nigrescens. For the other strains, the suspension is diluted 1:20. 0.1 ml of these bacterial suspensions are added to 2 ml of the substance solutions. After the incubation time, the tubes are assessed for growth (turbidity).
(§8) Test Organisms: *Actinobacillus actinomycetemcomitans ATCC 43718 *Stretococcus gordonii ATCC 10558 *Streptococcus mutans ATCC 33402 Actinomyces viscosus ATCC 43146 Fusobacterium nucleatum subsp. polymorphum ATCC 10953 Porphyromonas gingivalis ATCC 33277
(§9) Prevotella nigrescens ATCC 33563

[9] = tested on: Fusobacterium nucleatum subsp. polymorphum; assay: MIC against oral microorganisms via broth dilution
Protocol: as §6, §7, §8, §9

[10] = tested on: Porphyromnas gingivalis; assay: MIC against oral microorganisms via broth dilution; conditions: read-out: MIC Porphyromnas gingivalis
Protocol: as §6, §7, §8, §9

[11] = tested on: Prevotella nigrescens; assay: MIC against oral microorganisms via broth dilution
Protocol: as §6, §7, §8, §9

[12] = tested on: Streptococcus gordonii; assay: MIC against oral microorganisms via broth dilution
Protocol: as §6, §7, §8, §9

[13] = tested on: Streptococcus mutans; assay: MIC against oral microorganisms via broth dilution
Protocol: as §6, §7, §8, §9

[14] = tested on: Escherichia coli; assay: MIC in the agar incorporation test; conditions: ATCC10536, agar incorporation, Mueller Hinton agar, 24 hours at 37° C., ATCC 10536, read-out: MIC Escherichia coli
Protocol: as §1, §2, §3, §4, §5

[15] = tested on: Actinomyces viscosus; assay: Microbicidal activity (suspension test, plate count); conditions: ATCC 43146
Protocol: (§10) Determination of Microbicidal Activity
(§11) 1 g stock solution with an appropriate concentration of test products are mixed with 8 g water and then inoculated with 1 ml of the selected test organisms. After a given contact period, aliquots are taken, inactivated and diluted. The number of surviving bacteria per ml incubation assay is determined by plate count. Proper inactivation by the inactivating medium used was checked each time.
(§12) Diluent: tryptone water for microorganisms
(§13) • (0.1% tryptone (Oxoid), 0.85% NaCl, deion. water) • deion. water for test substances • inactivating medium for detection of surviving microorganisms Growth medium: casein soybean peptone agar Inactivating Medium: tryptic soy broth special • (10% w/w Tween 80, 3% w/w Lecithine, 0.1% w/w L-Histidine, • 0.055% w/w Sodium thiosulfate) Test organisms: Staphylococcus aureus ATCC 6538 • Escherichia coli ATCC 10536 • Actinomyces viscosus ATCC 43146 • Corynebacterium xerosis ATCC 373 Test concentration: 120 ppm and 1200 ppm Contact times: 5 and 30 minutes at 22° C.
(§14) Incubation time: 24 h at 37° C.

[16] = tested on: Corynebacterium xerosis; assay: as above; conditions: ATCC 373
Protocol: as §10, §11, §12, §13, §14

[17] = tested on: Escherichia coli; assay: as above; conditions: ATCC 10536
Protocol: as §10, §11, §12, §13, §14

[18] = tested on: Staphylococcus aureus; assay: as above; conditions: ATCC 6538
Protocol: as §10, §11, §12, §13, §14

[19] = ATCC373, agar incorporation, Mueller Hinton agar, 24 hours at 37° C., ATCC 373, read-out: MIC Corynebacterium xerosis
[20] = agar incorporation, Mueller Hinton agar, 24 hours at 37° C.
[21] = ATCC6583, agar incorporation, Mueller Hinton agar, 24 hours at 37° C., ATCC 6583, read-out: MIC Staphylococcus aureus
[22] = ATCC12228, agar incorporation, Mueller Hinton agar, 24 hours at 37° C., ATCC 12228, read-out: MIC Staphylococcus epidermis
[23] = ATCC43146, broth dilution 0.94-15 ppm, 7-10 days at 37° C. anaerobically, ATCC 43146, read-out: MIC Actinomyces viscosus
[24] = ATCC10953, broth dilution 0.94-15 ppm, 7-10 days at 37° C. anaerobically, ATCC 10953, read-out: MIC Fusobacterium nucleatum subsp. polymorphum
[25] = broth dilution 0.94-15 ppm, Columbia bouillon, 7-10 days at 37° C. anaerobically, ATCC 33277
[26] = ATCC33563, broth dilution 0.94-15 ppm, Columbia bouillon, 7-10 days at 37° C. anaerobically, ATCC 33563, read-out: MIC Prevotella nigrescens
[27] = ATCC10558, broth dilution 0.94-15 ppm, 24 h aerobically with 10% CO2, ATCC 10558, read-out: MIC Streptococcus gordonii
[28] = ATCC33402, broth dilution 0.94-15 ppm, 24 h aerobically with 10% CO2, ATCC 33402, read-out: MIC Streptococcus mutans
[29] = 1200 ppm, 5 min contact at 22° C.
[30] = 1200 ppm, 30 min contact at 22° C.

MIC [1, 19] [µg/mL]	MIC [2] [µg/mL]	MIC [3, 20] [µg/mL]	MIC [5, 21] [µg/mL]	MIC [6, 22] [µg/mL]	MIC [7, 20] [µg/mL]	MIC [8, 23] [µg/mL]	MIC [9, 24] [µg/mL]	MIC [10, 25] [µg/mL]	MIC [11, 26] [µg/mL]	MIC [12, 27] [µg/mL]	MIC [13, 28] [µg/mL]	MIC [14] [µg/mL]	Compound	MIC [4] [µg/mL]	Microbicidal activity Actinomyces viscosus 120 ppm/5 min ([15]; 5 min contact at 22° C.) [log reductions]	Microbicidal activity Actinomyces viscosus 120 ppm/30 min ([15]; 30 min contact at 22° C.) [log reductions]	Microbicidal activity Corynebacterium xerosis 120 ppm/5 min ([16]; 5 min contact at 22° C.) [log reductions]	Microbicidal activity Corynebacterium xerosis 120 ppm/30 min ([16]; 30 min contact at 22° C.) [log reductions]	Microbicidal activity Escherichia coli 120 ppm/5 min ([17]; 5 min contact at 22° C.) [log reduction]	Microbicidal activity Escherichia coli 120 ppm/30 min ([17]; 30 min contact at 22° C.) [log reduction]	also measured
3.1	25	6.3	12.5	12.5	3.1	7.5	7.5	7.5	3.8	15	15		COc1cccc(/C=C/c2ccc(/C=C/c3cccc(OC)c3OCCCN(C)C)cc2)c1OCCCN(C)C [formula 27]	200							
7.8	31.3	3.9	7.8	15.6	3.9	3.75	7.5	3.75	7.5	7.5	7.5	125	CN(C)CCSc1ccccc1/C=C/c1ccc(/C=C/c2ccccc2SCCN(C)C)cc1 [formula 23]	125	2	4	5	5	3.3	5	Microbicidal activity Staphylococcus aureus 120 ppm/5 min ([18]; 5 min contact at 22° C.): 2 log reduction; Microbicidal activity Staphylococcus aureus 120 ppm/30 min ([18]; 30 min contact at 22° C.): 4 log reduction
15.6		62.5	62.5	62.5	15.6	15			15			125	CCN(CC)CCOc1cccc(/C=C/c2ccc(/C=C/c3cccc(OCCN(CC)CC)c3OCCN(CC)CC)cc2)c1OCCN(CC)CC [formula 25]	125	2.9	2.1	5	5	5	5	Microbicidal activity Actinomyces viscosus 1200 ppm/5 min [15, 29]: 4 log reductions; Microbicidal activity Actinomyces viscosus 1200 ppm/30 min [15, 30]: 4 log reductions; Microbicidal activity Corynebacterium xerosis 1200 ppm/5 min [16, 29]: 5 log reductions; Microbicidal activity Corynebacterium xerosis 1200 ppm/30 min [16, 30]: 5 log reductions; Microbicidal activity Escherichia coli 1200 ppm/5 min [17, 29]: 5 log reduction; Microbicidal activity Escherichia coli 1200 ppm/30 min [17, 30]: 5 log reduction; Microbicidal activity Staphylococcus aureus 120 ppm/5 min ([18]; 5 min contact at 22° C.): 1 log reduction; Microbicidal activity Staphylococcus aureus 120 ppm/30 min ([18]; 30 min contact at 22° C.): 1 log reduction; Microbicidal activity Staphylococcus aureus 1200 ppm/5 min [18, 29]: 2.9 log reduction; Microbicidal activity Staphylococcus aureus 1200 ppm/30 min [18, 30]: 2.8 log reduction
													COc1cccc(/C=C/c2ccc(-c3ccc(/C=C/c4cccc(OC)c4OCCCN(C)C)cc3)cc2)c1OCCCN(C)C [formula 31]								MIC ([1]; ATCC373, 24 h, read-out: MIC Corynebacterium xerosis): 125 µg/mL; MIC ([3]; 24 h): 7.8 µg/mL; MIC ([5]; ATCC6583, 24 h, read-out: MIC Staphylococcus aureus): 62.5 µg/mL; MIC ([6]; ATCC12228, 24 h, read-out: MIC Staphylococcus epidermis): 125 µg/mL; MIC ([7]; 24 h): 15.6 µg/mL; MIC ([8]; ATCC43146, read-out: MIC Actinomyces viscosus): 3.8 µg/mL; MIC ([9]; ATCC10953, read-out: MIC Fusobacterium nucleatum subsp. polymorphum): 15 µg/mL; MIC [10]: 1.9 µg/mL; MIC ([11]; ATCC33563, read-out: MIC Prevotella nigrescens): 3.75 µg/mL; MIC ([12]; ATCC10558, 24 h, read-out: MIC Streptococcus gordonii): 11.2 µg/mL; MIC ([13]; ATCC33402, 24 h, read-out: MIC Streptococcus mutans): 7.5 µg/mL
